Assay results reported in patent publication US10246453B2, “Benzenesulfonamide compounds and their use as therapeutic agents” (Xenon Pharmaceuticals Inc., priority 2016, dated 2019).

Experiments:
NaV1.1 [1] = target: T1, NaV1.1 (Homo sapiens (Human), UniProt P35498); assay: Sodium Influx Assay (Flux), NaV1.1; assay type: cell-based; settings: Trex HEK293 cells, ANG2 dye; arithmetic mean
NaV1.6 [2] = target: T2, NaV1.6 (Homo sapiens (Human), UniProt Q9UQD0); assay: Electrophysiological Assay (EP), patch voltage clamp, NaV1.6; assay type: cell-based; settings: HEK-293 cells, whole-cell patch clamp, inactivated state; arithmetic mean
Source text: Patch voltage clamp electrophysiology allows for the direct measurement and quantification of block of voltage-gated sodium channels (Nay's), and allows the determination of the time-and voltage-dependence of block which has been interpreted as differential binding to the resting, open, and inactivated states of the sodium channel (Hille, B., Journal of General Physiology (1977), 69: 497-515).
NaV1.1, NaV1.5 and NaV1.6 cDNAs (NM_001165964 (SCN1A), NM_000335 (SCN5A) and NM_014191 (SCN8A), respectively) were stably expressed in HEK-293 cells.
(§1) Sodium currents were measured using the patch clamp technique in the whole-cell configuration using either a PatchXpress automated voltage clamp or manually using an Axopatch 200B (Axon Instruments) or Model 2400 (A-M systems) amplifier.
The manual voltage clamp protocol was as follows: Borosilicate glass micropipettes were fire-polished to a tip diameter yielding a resistance of 2-4 Mohms in the working solutions. […] In some studies, the external sodium was reduced by equimolar replacement with choline. Osmolarity in the CsF internal and NaCl external solutions was adjusted to 300 mOsm/kg and 310 mOsm/kg with glucose, respectively. All recordings were performed at ambient temperature in a bath chamber with a volume of 150 μL. Control sodium currents were measured in 0.5% DMSO. Controls and representative compounds of the invention were applied to the recording chamber through a 4-pinch or 8-pinch valve bath perfusion system manufactured by ALA Scientific Instruments.
Currents were recorded at 40 kHz sampling frequency, filtered at […], and stored using a Digidata-1322A analogue/digital interface with the pClamp software (Axon Instruments). Series resistance compensation was applied (60-80%). […] All statistics in this study are given as mean±SD.
The membrane potential was maintained at a voltage where inactivation of the channel is complete. The voltage is then stepped back to a very negative (Vhold=−150 mV) voltage for 20 ms and then a test pulse is applied to quantify the compound block. The 20 ms brief repolarization was long enough for compound-free channels to completely recover from fast inactivation, but the compound-bound channels recovered more slowly such that negligible recovery could occur during this interval. The percent decrease in sodium current following wash-on of compound was taken as the percent block of sodium channels.

NaV1.1 [3] = target: T1, NaV1.1; assay: Electrophysiological Assay (EP), patch voltage clamp, NaV1.1; assay type: cell-based; settings: HEK-293 cells, whole-cell patch clamp, inactivated state; arithmetic mean
Method: as §1
In some studies, the external sodium was reduced by equimolar replacement with choline. […] All recordings were performed at ambient temperature in a bath chamber with a volume of 150 μL. Control sodium currents were measured in 0.5% DMSO. Controls and representative compounds of the invention were applied to the recording chamber through a 4-pinch or 8-pinch valve bath perfusion system manufactured by ALA Scientific Instruments.
Series resistance compensation was applied (60-80%). […] All statistics in this study are given as mean±SD.
The membrane potential was maintained at a voltage where inactivation of the channel is complete. The voltage is then stepped back to a very negative (Vhold=−150 mV) voltage for 20 ms and then a test pulse is applied to quantify the compound block. […] The percent decrease in sodium current following wash-on of compound was taken as the percent block of sodium channels.

NaV1.6 [4] = target: T2, NaV1.6; assay: Sodium Influx Assay (Flux), NaV1.6; settings: read-out: Flux NaV1.6 IC50; Trex HEK293 cells, ANG2 dye; arithmetic mean
NaV1.5 = NaV1.5 (Homo sapiens (Human), UniProt Q14524); assay: Sodium Influx Assay (Flux), NaV1.5; settings: read-out: Flux NaV1.5 IC50; Trex HEK293 cells, ANG2 dye; arithmetic mean
Sequence of NaV1.5 (Q14524 other isoform, or with tags, fused parts or gaps): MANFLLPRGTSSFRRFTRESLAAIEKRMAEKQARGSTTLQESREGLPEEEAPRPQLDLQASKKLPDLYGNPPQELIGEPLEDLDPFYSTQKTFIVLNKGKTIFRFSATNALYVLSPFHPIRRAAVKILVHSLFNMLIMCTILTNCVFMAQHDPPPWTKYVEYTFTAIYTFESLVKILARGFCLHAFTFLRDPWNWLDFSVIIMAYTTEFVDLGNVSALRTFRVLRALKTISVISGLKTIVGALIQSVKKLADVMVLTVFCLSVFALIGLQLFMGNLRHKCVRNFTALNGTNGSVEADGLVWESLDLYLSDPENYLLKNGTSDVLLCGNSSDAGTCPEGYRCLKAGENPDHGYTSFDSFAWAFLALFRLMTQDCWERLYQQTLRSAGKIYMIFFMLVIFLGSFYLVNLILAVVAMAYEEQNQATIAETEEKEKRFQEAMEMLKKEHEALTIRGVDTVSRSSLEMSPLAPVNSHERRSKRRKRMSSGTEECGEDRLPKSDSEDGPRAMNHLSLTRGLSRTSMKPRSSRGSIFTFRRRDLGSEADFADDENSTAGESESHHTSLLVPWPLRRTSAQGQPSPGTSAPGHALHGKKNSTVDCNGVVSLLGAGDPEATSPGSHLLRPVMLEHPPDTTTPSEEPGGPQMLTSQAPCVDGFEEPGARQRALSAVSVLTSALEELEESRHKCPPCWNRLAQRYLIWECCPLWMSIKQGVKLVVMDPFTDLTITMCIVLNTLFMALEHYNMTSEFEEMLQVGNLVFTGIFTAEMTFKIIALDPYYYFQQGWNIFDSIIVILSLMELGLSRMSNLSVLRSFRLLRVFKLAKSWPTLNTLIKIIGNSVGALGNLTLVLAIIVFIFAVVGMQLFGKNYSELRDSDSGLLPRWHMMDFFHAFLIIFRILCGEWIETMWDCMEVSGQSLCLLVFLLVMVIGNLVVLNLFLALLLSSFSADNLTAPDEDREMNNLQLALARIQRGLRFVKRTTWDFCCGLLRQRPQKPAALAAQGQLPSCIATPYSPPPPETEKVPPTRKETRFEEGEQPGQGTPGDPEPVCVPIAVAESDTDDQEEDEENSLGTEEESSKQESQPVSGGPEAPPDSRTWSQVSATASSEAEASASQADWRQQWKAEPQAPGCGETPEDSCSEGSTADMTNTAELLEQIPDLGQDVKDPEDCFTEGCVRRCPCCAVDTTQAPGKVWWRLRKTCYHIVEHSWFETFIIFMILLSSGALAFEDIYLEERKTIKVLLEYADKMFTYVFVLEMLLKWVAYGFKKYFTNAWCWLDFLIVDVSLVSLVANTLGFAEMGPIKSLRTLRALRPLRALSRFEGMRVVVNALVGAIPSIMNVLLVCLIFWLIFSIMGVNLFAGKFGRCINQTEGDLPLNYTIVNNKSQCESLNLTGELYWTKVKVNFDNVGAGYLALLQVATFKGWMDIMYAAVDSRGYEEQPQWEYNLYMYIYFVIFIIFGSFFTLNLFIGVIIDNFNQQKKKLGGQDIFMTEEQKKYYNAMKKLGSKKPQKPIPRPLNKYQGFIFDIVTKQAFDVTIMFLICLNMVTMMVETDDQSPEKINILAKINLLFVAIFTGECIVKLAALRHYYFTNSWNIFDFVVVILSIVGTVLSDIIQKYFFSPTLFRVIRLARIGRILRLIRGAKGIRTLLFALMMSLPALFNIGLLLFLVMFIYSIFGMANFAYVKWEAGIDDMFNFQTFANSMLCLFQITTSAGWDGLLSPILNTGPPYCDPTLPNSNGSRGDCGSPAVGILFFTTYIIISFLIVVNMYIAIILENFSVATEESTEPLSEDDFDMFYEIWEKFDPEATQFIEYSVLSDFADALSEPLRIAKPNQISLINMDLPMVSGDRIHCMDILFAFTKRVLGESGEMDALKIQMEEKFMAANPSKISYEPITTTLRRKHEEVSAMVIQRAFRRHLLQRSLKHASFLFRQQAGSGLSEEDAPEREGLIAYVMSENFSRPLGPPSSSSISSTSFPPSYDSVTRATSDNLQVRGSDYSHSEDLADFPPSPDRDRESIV

T2 sequence (Q9UQD0 whole entry): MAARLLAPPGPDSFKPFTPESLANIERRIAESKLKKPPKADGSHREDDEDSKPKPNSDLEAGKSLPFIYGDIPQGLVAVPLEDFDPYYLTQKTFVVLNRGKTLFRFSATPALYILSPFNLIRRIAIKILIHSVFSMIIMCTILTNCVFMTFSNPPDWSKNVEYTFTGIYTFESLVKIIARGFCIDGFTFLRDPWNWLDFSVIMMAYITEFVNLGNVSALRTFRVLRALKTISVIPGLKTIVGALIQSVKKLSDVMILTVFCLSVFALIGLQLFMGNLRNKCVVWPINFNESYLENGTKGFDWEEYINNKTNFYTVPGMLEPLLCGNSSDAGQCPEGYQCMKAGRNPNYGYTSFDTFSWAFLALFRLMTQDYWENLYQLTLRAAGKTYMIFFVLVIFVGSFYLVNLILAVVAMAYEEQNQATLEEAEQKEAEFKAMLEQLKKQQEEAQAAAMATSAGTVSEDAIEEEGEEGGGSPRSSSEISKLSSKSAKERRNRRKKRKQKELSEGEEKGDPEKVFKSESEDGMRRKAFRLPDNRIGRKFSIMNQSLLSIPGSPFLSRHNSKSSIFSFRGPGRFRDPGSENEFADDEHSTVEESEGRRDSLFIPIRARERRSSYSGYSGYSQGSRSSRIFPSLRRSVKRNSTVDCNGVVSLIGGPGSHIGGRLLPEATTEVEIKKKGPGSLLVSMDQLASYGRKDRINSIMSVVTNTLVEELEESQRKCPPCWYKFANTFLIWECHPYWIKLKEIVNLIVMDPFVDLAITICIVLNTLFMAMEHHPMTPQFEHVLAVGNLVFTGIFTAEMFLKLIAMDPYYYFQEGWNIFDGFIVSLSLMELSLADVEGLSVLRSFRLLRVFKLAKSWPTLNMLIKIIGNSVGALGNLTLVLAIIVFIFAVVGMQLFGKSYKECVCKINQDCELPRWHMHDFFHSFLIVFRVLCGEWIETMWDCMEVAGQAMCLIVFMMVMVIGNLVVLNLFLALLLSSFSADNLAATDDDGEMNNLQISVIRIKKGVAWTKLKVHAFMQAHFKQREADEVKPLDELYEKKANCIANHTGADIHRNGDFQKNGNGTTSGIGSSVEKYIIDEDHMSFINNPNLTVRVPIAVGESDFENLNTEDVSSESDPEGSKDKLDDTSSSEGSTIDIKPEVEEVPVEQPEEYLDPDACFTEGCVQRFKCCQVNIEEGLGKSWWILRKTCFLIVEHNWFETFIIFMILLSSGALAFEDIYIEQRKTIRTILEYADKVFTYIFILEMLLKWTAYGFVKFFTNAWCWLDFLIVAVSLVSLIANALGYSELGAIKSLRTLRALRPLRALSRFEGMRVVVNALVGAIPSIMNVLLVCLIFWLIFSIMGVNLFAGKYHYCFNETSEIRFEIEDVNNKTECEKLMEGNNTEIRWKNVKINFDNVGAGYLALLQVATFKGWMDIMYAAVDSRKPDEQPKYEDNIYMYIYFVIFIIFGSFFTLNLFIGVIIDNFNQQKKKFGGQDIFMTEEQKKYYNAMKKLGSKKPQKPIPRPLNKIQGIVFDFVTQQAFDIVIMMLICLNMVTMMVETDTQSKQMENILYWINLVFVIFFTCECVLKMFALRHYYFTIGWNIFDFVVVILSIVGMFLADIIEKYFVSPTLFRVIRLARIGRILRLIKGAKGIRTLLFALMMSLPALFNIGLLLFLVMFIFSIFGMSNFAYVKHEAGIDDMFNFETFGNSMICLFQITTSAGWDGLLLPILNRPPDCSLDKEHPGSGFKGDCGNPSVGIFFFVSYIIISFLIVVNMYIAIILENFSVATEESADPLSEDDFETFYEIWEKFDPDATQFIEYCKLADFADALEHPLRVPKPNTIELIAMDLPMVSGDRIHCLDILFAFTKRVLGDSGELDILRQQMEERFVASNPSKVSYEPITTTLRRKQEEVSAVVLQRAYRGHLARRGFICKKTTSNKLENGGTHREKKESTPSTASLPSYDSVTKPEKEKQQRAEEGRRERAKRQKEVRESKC

IC50 (NaV1.1 [1])	IC50 (NaV1.6 [2])	IC50 (NaV1.1 [3])	IC50 (NaV1.6 [4])	SMILES	IC50 (NaV1.5)
> 30000 nM	839 nM	> 10000 nM	552 nM	O=S(=O)(Nc1nccs1)c1ccc(OC2CCN(Cc3ccccn3)CC2)c(Cl)c1 [Example 65, 3-chloro-4-((1-(pyridin-2-ylmethyl)piperidin-4-yl)oxy)-N-(thiazol-2-yl)benzenesulfonamide]	29700 nM
6340 nM	138 nM	> 10000 nM	570 nM	O=S(=O)(Nc1nccs1)c1ccc(N[C@@H]2CCN(Cc3ccccc3)C2)c(Cl)c1 [Example 79, (R)-4-(1-benzylpyrrolidin-3-ylamino)-3-chloro-N-(thiazol-2-yl)benzenesulfonamide]	> 30000 nM
12200 nM	124 nM	> 10000 nM	378 nM	CN(c1ccc(S(=O)(=O)Nc2nccs2)cc1Cl)[C@H]1CCN(Cc2ccccc2)C1 [Example 80, (S)-4-((1-benzylpyrrolidin-3-yl)(methyl)amino)-3-chloro-N-(thiazol-2-yl)benzenesulfonamide]	29100 nM
> 30000 nM	56 nM	> 10000 nM	423 nM	Cc1cccc(CN2CCC(Oc3ccc(S(=O)(=O)Nc4nccs4)cc3Cl)CC2)n1 [Example 82, 3-chloro-4-(1-((6-methylpyridin-2-yl)methyl)piperidin-4-yloxy)-N-(thiazol-2-yl)benzenesulfonamide]	> 30000 nM
> 30000 nM	36 nM	> 10000 nM	29 nM	Cc1cccc(CN2CC[C@H](N(C)c3ccc(S(=O)(=O)Nc4ncns4)cc3Cl)C2)c1 [Example 83, (S)-3-chloro-4-(methyl(1-(3-methylbenzyl)pyrrolidin-3-yl)amino)-N-(1,2,4-thiadiazol-5-yl)benzenesulfonamide]	> 30000 nM
5960 nM	393 nM	7280 nM	744 nM	O=S(=O)(Nc1nccs1)c1cc(Cl)c(N[C@H]2CCN(Cc3ccccc3)C2)cc1F [Example 87, (S)-4-(1-benzylpyrrolidin-3-ylamino)-5-chloro-2-fluoro-N-(thiazol-2-yl)benzenesulfonamide]	14300 nM
1590 nM	39 nM	1240 nM	381 nM	Cc1cccc(CN2CC[C@@H](Nc3cc(F)c(S(=O)(=O)Nc4nccs4)cc3Cl)C2)c1 [Example 88, (R)-5-chloro-2-fluoro-4-(1-(3-methylbenzyl)pyrrolidin-3-ylamino)-N-(thiazol-2-yl)benzenesulfonamide]	5910 nM
2130 nM	91 nM	2870 nM	501 nM	O=S(=O)(Nc1nccs1)c1cc(Cl)c(N[C@@H]2CCN(Cc3ccccc3)C2)cc1F [Example 89, (R)-4-(1-benzylpyrrolidin-3-ylamino)-5-chloro-2-fluoro-N-(thiazol-2-yl)benzenesulfonamide]	12000 nM
6400 nM	81 nM	7530 nM	203 nM	Cc1cccc(CN2CCC(Oc3ccc(S(=O)(=O)Nc4nccs4)cc3Cl)CC2)c1 [Example 92, 3-chloro-4-(1-(3-methylbenzyl)piperidin-4-yloxy)-N-(thiazol-2-yl)benzenesulfonamide]	3640 nM
30000 nM	164 nM	> 10000 nM	190 nM	O=S(=O)(Nc1ncns1)c1ccc(OC2CCN(Cc3ccccc3)CC2)c(Cl)c1 [Example 100, 4-(1-benzylpiperidin-4-yloxy)-3-chloro-N-(1,2,4-thiadiazol-5-yl)benzenesulfonamide 2,2,2-trifluoroacetate]	> 30000 nM

SMILES	IC50 (NaV1.1 [1])	IC50 (NaV1.6 [2])	IC50 (NaV1.1 [3])	IC50 (NaV1.6 [4])	IC50 (NaV1.5)
CN(c1ccc(S(=O)(=O)Nc2ncns2)cc1Cl)[C@@H]1CCN(Cc2ccccc2)C1 [Example 68, (R)-4-((1-benzylpyrrolidin-3-yl)(methyl)amino)-3-chloro-N-(1,2,4-thiadiazol-5-yl)benzenesulfonamide 2,2,2-trifluoroacetate]	> 30000 nM	2920 nM	> 10000 nM	1410 nM	> 30000 nM
